PubChem BioAssay AID330 (DTP/NCI, 2004)
Toxic doses and inconclusive results are not listed. How the source made its calls: active means survival T/C of 150% or more; inactive means T/C below 125% in these data.

System: P388 leukemia ip, CD2F1 mice, survival T/C
Test: NCI In Vivo Anticancer Drug Screen. Data for tumor model P388 Leukemia (intraperitoneal) in CD2F1 (CDF1) mice
Details: endpoint: median survival time, higher = longer survival
In short: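 Mice carrying the transplanted tumor received test compound or vehicle. Survival was recorded in each group, and the value is the treated-group measurement divided by that of the vehicle-treated control group.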

[1] = dose: 60.0 mg/kg/injection, schedule: Q01DX005 (ip), vehicle: saline with Tween-80
[2] = dose: 120.0 mg/kg/injection, schedule: Q01DX005 (ip), vehicle: saline with Tween-80

Measured: T/C

Cc1nc2c(O)ccc(O)c2nc1C
inactive: dose: 3.75 mg/kg/injection, schedule: Q01DX009 (ip), vehicle: saline with Tween-80 99 % of control | dose: 3.75 mg/kg/injection, schedule: Q04DX003 (ip), vehicle: saline with Tween-80 100 % of control | dose: 7.5 mg/kg/injection, schedule: Q01DX009 (ip), vehicle: saline with Tween-80 94 % of control | dose: 7.5 mg/kg/injection, schedule: Q04DX003 (ip), vehicle: saline with Tween-80 99 % of control | dose: 15.0 mg/kg/injection, schedule: Q01DX009 (ip), vehicle: saline with Tween-80 88 % of control | dose: 15.0 mg/kg/injection, schedule: Q04DX003 (ip), vehicle: saline with Tween-80 106 % of control | dose: 30.0 mg/kg/injection, schedule: Q01DX009 (ip), vehicle: saline with Tween-80 95 % of control | dose: 30.0 mg/kg/injection, schedule: Q04DX003 (ip), vehicle: saline with Tween-80 109 % of control | dose: 60.0 mg/kg/injection, schedule: Q01DX009 (ip), vehicle: saline with Tween-80 110 % of control | dose: 60.0 mg/kg/injection, schedule: Q04DX003 (ip), vehicle: saline with Tween-80 109 % of control

COC(=O)c1nnn(-c2cccc(C(F)(F)F)c2)c1C(=O)c1ccc(Cl)c(Cl)c1
inactive: [1] 99 % of control | [2] 100 % of control | dose: 240.0 mg/kg/injection, schedule: Q01DX005 (ip), vehicle: saline with Tween-80 92 % of control

CCOC(=O)c1cc2c(cc1O)C1CC=C(C)[C@@H]3CCO[C@](OC)(C2)[C@]13C(=O)OC (stereo partly drawn)
inactive: dose: 6.25 mg/kg/injection, schedule: Q01DX001 (ip), vehicle: saline with Tween-80 106 % of control | dose: 12.5 mg/kg/injection, schedule: Q01DX001 (ip), vehicle: saline with Tween-80 101 % of control | dose: 25.0 mg/kg/injection, schedule: Q01DX001 (ip), vehicle: saline with Tween-80 111 % of control | dose: 50.0 mg/kg/injection, schedule: Q01DX001 (ip), vehicle: saline with Tween-80 100 % of control

Oc1c(C(c2ccccc2)N2CCCCC2)ccc2ccccc12 (stereo not drawn)
inactive: dose: 50.0 mg/kg/injection, schedule: Q01DX009 (ip), vehicle: saline with Tween-80 110 % of control | dose: 100.0 mg/kg/injection, schedule: Q01DX009 (ip), vehicle: saline with Tween-80 105 % of control | dose: 200.0 mg/kg/injection, schedule: Q01DX009 (ip), vehicle: saline with Tween-80 90 % of control

CC(C)(O)c1ccccc1[S+]1OC(C)(C)c2ccccc21 (stereo not drawn)
inactive: dose: 100.0 mg/kg/injection, schedule: Q04DX002 (ip), vehicle: saline with Tween-80 109 % of control | dose: 200.0 mg/kg/injection, schedule: Q04DX002 (ip), vehicle: saline with Tween-80 112 % of control | dose: 400.0 mg/kg/injection, schedule: Q04DX002 (ip), vehicle: saline with Tween-80 109 % of control

CCCCCCCCCCCCCCCCCCCC(O)CCCCCCCCC (stereo not drawn)
inactive: dose: 15.0 mg/kg/injection, schedule: Q01DX005 (ip), vehicle: saline with Tween-80 102 % of control | dose: 30.0 mg/kg/injection, schedule: Q01DX005 (ip), vehicle: saline with Tween-80 94 % of control | [1] 87 % of control | [2] 86 % of control

CN1CCc2c3n(c4ccccc24)C(=O)CCC31 (stereo not drawn)
inactive: dose: 6.25 mg/kg/injection, schedule: Q01DX009 (ip), vehicle: saline with Tween-80 120 % of control | dose: 12.5 mg/kg/injection, schedule: Q01DX009 (ip), vehicle: saline with Tween-80 120 % of control | dose: 25.0 mg/kg/injection, schedule: Q01DX009 (ip), vehicle: saline with Tween-80 120 % of control

CC(=O)C1=C(O)/C(=C\c2ccccc2)OC1=O
inactive: dose: 50.0 mg/kg/injection, schedule: Q01DX009 (ip), vehicle: Klucel (hydroxypropylcellulose) (HPC) 92 % of control | dose: 100.0 mg/kg/injection, schedule: Q01DX009 (ip), vehicle: Klucel (hydroxypropylcellulose) (HPC) 107 % of control

CN(C)CCCN1c2ccc(O)cc2Sc2ccc(Cl)cc21
inactive: dose: 25.0 mg/kg/injection, schedule: Q04DX003 (ip), vehicle: saline with Tween-80 100 % of control | dose: 50.0 mg/kg/injection, schedule: Q04DX003 (ip), vehicle: saline with Tween-80 95 % of control | dose: 100.0 mg/kg/injection, schedule: Q04DX003 (ip), vehicle: saline with Tween-80 95 % of control

C1CCCc2c(-c3noc4c3CCCCCC4)noc2CC1
inactive: dose: 60.0 mg/kg/injection, schedule: Q01DX005 (ip), vehicle: saline 98 % of control | dose: 120.0 mg/kg/injection, schedule: Q01DX005 (ip), vehicle: saline 99 % of control | dose: 240.0 mg/kg/injection, schedule: Q01DX005 (ip), vehicle: saline 108 % of control
